Test results reported in PMC8921065, “Combination of terbium-161 with somatostatin receptor antagonists—a potential paradigm shift for the treatment of neuroendocrine neoplasms” (European Journal of Nuclear Medicine and Molecular Imaging, 2021).
“And” between values parts separate entries of the source, which are not always exact repeats. Equal entries are not always repeated. Where two headings read alike, the source gives them in different places. Where a SMILES comes first, the peptide text is derived from it. Bridges are numbered along the chain shown (N, C = ends). [ ]: non-standard residue; d: D form. The star is where a group is joined. DOTA = O=C(O)CN1CCN(CC(=O)O)CCN(CC(=O)*)CCN(CC(=O)O)CC1; dPhe(4-NHCONH2) = NC(=O)Nc1ccc(C[C@@H](N)C(=O)O)cc1; Phe(4-Cl) = N[C@@H](Cc1ccc(Cl)cc1)C(=O)O

Legend:
[1] = Early side effects: relative body weight, organ masses and mass ratios; type: in vivo, mice; details: at euthanasia
Excerpt: At the same time, relevant organs and tissues were collected, and the masses were put into relation to the brain mass of the respective mouse in order to allow the comparison of organ-to-brain and organ-to-body weight ratios among the single treatment groups (Supplementary Material).
Definition of relative body weight (RBW): The RBW was defined as [BWx/ BW0], where BWx is the body weight in gram at a given Day x and BW0 the body weight in gram at Day 0.

[2] = Early side effects: blood plasma chemistry; type: in vivo, mice; details: endpoint of the therapy
AR42J tumor-bearing mice [3] = details: 2 h p.i., 1.0 nmol/mouse, ref Borgna et al., 2021 [11], cited from earlier work
AR42J tumor-bearing mice [4] = assay: Therapy study, therapeutic efficacy; details: for tumor growth delay: day 0 and day 7; for Time frame of euthanasia: end of study day 49
Protocol: The therapy study was initiated with mice randomly assigned to five groups (n = 6) when the AR42J tumors reached an average volume of 99 ± 16 mm^3. […] The endpoint criteria were defined according to a scoring system which required euthanasia of mice with a score ≥ 3 (Supplementary Material).
For the subsequent phase, in which the tumors started to regrow, the doubling time of the tumor volume was calculated based on the fitted exponential tumor growth curve. The average ± SD of tumor growth delay and of the doubling time of the tumor volume in single mice, respectively, were compared among groups with a one-way ANOVA with Tukey’s multiple comparisons post-test. The survival times of mice were presented by Kaplan–Meier curves and analyzed using a log-rank test (Mantel-Cox).
Definition of tumor volume (V) and relative tumor volume (RTV): The tumor dimension was determined by measuring the longest tumor axis (L) and its perpendicular axis (W) with a digital caliper. The tumor volume (TV) was calculated according to the equation [V = 0.5 × (L × W^2)]. The relative tumor volume (RTV) was defined as [TVx/TV0], where TVx is the tumor volume in mm^3 at a given Day x and TV0 the tumor volume in mm^3 at Day 0.
Scoring system: Endpoint criteria were defined using a scoring system which required euthanasia of mice with a score ≥3. Every second day, the following criteria were assessed in the mice, assigning a score from 0–3 for each criterion: (i) appearance (general status, skin color, etc.), (ii) behavior (vitality, sociality, crouching etc.), (iii) body weight (stable, loss >5 ≤10%, loss >10 <15%, loss ≥ 15% compared to initial body weight), (iv) tumor size (<800 mm^3, ≥800 and <900 mm^3, ≥900 and <1000 mm^3, ≥1000 mm^3), (v) tumor ulceration. A score ≥3 was for example due to: (i) appearance of wrinkled, translucent skin, (ii) mouse in crouching position and/or apathetic, (iii) a body weight loss of ≥15% of initial body weight, (iv) a tumor volume of ≥1000 mm^3, (iii/iv) a combination of a tumor size of ≥800 mm^3 and body weight loss of ≥10% and/or (v) ulceration of the tumor.

metastatic NENs = details: human, in vivo; cited from earlier work
in vivo = details: mouse, iv, total radioactivity

Row | SMILES | Organ mass Brain [1] [mg] | Organ mass Kidneys [1] [mg] | Organ mass Liver [1] [mg] | Organ mass Spleen [1] [mg] | ALB [2] [g/L] | ALP [2] [U/L] | BUN [2] | CRE [2] | TBIL [2] | AR42J tumor uptake (AR42J tumor-bearing mice [3]) [% IA/g] | Adrenals uptake (AR42J tumor-bearing mice [3]) [% IA/g] | Blood uptake (AR42J tumor-bearing mice [3]) [% IA/g] | Femur uptake (AR42J tumor-bearing mice [3]) [% IA/g] | Heart uptake (AR42J tumor-bearing mice [3]) [% IA/g] | Intestines uptake (AR42J tumor-bearing mice [3]) [% IA/g] | Kidneys uptake (AR42J tumor-bearing mice [3]) [% IA/g] | Liver uptake (AR42J tumor-bearing mice [3]) [% IA/g] | Lung uptake (AR42J tumor-bearing mice [3]) [% IA/g] | tumor growth delay (AR42J tumor-bearing mice [4]; 2 × 10 MBq, 0.2 nmol) | Median survival (AR42J tumor-bearing mice [4]; mouse, in vivo) [days] | other results
1 | C[C@@H](O)[C@@H]1NC(=O)[C@H](CCCCN)NC(=O)[C@@H](Cc2c[nH]c3ccccc23)NC(=O)[C@H](Cc2ccc(O)cc2)NC(=O)[C@@H](NC(=O)[C@@H](Cc2ccccc2)NC(=O)CN2CCN(CC(=O)O)CCN(CC(=O)O)CCN(CC(=O)O)CC2)CSSC[C@@H](C(=O)N[C@H](CO)[C@@H](C)O)NC1=O [[^161Tb]Tb-DOTATOC] [metal not drawn] | 440 ± 23 | 352 ± 27 | 1195 ± 57 | 86 ± 19 | 23 ± 2 | 76 ± 21 | 5.8 ± 1.0 mmol/L | <18 (n=6) µmol/L | < 3 µmol/L and 4 ± 1 µmol/L | 8.2 ± 0.2 | 0.25 ± 0.06 | ≤0.10 | ≤0.10 | ≤0.10 | 0.21 ± 0.13 | 9.9 ± 1.3 | 0.17 ± 0.01 | 0.27 ± 0.03 | 9.0 ± 5.5 days | 21 | Muscle uptake (AR42J tumor-bearing mice [3]): ≤0.10 % IA/g; Pancreas uptake (AR42J tumor-bearing mice [3]): 0.71 ± 0.07 % IA/g; Spleen uptake (AR42J tumor-bearing mice [3]): 0.11 ± 0.02 % IA/g; Stomach uptake (AR42J tumor-bearing mice [3]): 0.74 ± 0.38 % IA/g; Time frame of euthanasia (AR42J tumor-bearing mice [4]; 2 × 10 MBq, 0.2 nmol): 20 to 26 days
2 | C[C@@H](O)[C@@H]1NC(=O)[C@H](CCCCN)NC(=O)[C@@H](Cc2c[nH]c3ccccc23)NC(=O)[C@H](Cc2ccc(O)cc2)NC(=O)[C@@H](NC(=O)[C@@H](Cc2ccccc2)NC(=O)CN2CCN(CC(=O)O)CCN(CC(=O)O)CCN(CC(=O)O)CC2)CSSC[C@@H](C(=O)N[C@H](CO)[C@@H](C)O)NC1=O [[^177Lu]Lu-DOTATOC] [metal not drawn] | 453 ± 31 | 342 ± 23 | 1121 ± 123 | 90 ± 17 | 24 ± 5 | 77 ± 8 | 6.3 ± 0.9 mmol/L | <18 (n=5) µmol/L | < 3 µmol/L and 4 ± 1 µmol/L | 8.9 ± 1.5 | 0.28 ± 0.08 | ≤0.10 | ≤0.10 | ≤0.10 | 0.20 ± 0.05 | 11 ± 1 | 0.26 ± 0.07 | 0.37 ± 0.06 | 6.0 ± 4.4 days and 6 ± 4 days | 19.5 | Muscle uptake (AR42J tumor-bearing mice [3]): ≤0.10 % IA/g; Pancreas uptake (AR42J tumor-bearing mice [3]): 0.80 ± 0.13 % IA/g; Spleen uptake (AR42J tumor-bearing mice [3]): 0.15 ± 0.03 % IA/g; Stomach uptake (AR42J tumor-bearing mice [3]): 0.65 ± 0.11 % IA/g; Time frame of euthanasia (AR42J tumor-bearing mice [4]; 2 × 10 MBq, 0.2 nmol): 12 to 22 days
3 | C[C@@H](O)[C@@H]1NC(=O)[C@H](CCCCN)NC(=O)[C@@H](Cc2ccc(NC(N)=O)cc2)NC(=O)[C@H](Cc2ccc(O)cc2)NC(=O)[C@H](NC(=O)[C@H](Cc2ccc(Cl)cc2)NC(=O)CN2CCN(CC(=O)O)CCN(CC(=O)O)CCN(CC(=O)O)CC2)CSSC[C@@H](C(=O)N[C@H](Cc2ccc(O)cc2)C(N)=O)NC1=O [DOTA-LM3] |  |  |  |  |  |  |  |  |  |  |  |  |  |  |  |  |  |  |  |  | AR42J tumor uptake (AR42J tumor-bearing mice [3]; listed as [^161Tb]Tb/[^177Lu]Lu-DOTA-LM3): ~ 18 % IA/g
4 | C[C@@H](O)[C@@H]1NC(=O)[C@H](CCCCN)NC(=O)[C@@H](Cc2ccc(NC(N)=O)cc2)NC(=O)[C@H](Cc2ccc(O)cc2)NC(=O)[C@H](NC(=O)[C@H](Cc2ccc(Cl)cc2)NC(=O)CN2CCN(CC(=O)O)CCN(CC(=O)O)CCN(CC(=O)O)CC2)CSSC[C@@H](C(=O)N[C@H](Cc2ccc(O)cc2)C(N)=O)NC1=O [[^177Lu]Lu-DOTA-LM3] [metal not drawn] ({DOTA}-[Phe(4-Cl)][dC]Y[dPhe(4-NHCONH2)]KTC[dY]-NH2; disulfide 2-7 (inferred); C-terminus assumed) | 471 ± 30 | 336 ± 13 | 1254 ± 106 | 92 ± 17 | 23 ± 1 | 66 ± 5 | 8.2 ± 1.9 mmol/L and 8.2 ± 1.8 mmol/L | < 18 µmol/L and 19 µmol/L | < 3 µmol/L and 4 ± 1 µmol/L |  |  |  |  |  |  |  |  |  | 35 ± 7 days | 48.5 | tolerability in patients (metastatic NENs): well tolerated; tumor doses compared to [177Lu]Lu-DOTATOC (metastatic NENs): higher tumor doses; mice with exponential tumor regrowth (AR42J tumor-bearing mice [4]; after the growth delay): 5 out of 6; mice surviving until the end of the study (AR42J tumor-bearing mice [4]; mouse, in vivo): three out of six mice; doubling time of the tumor volume (AR42J tumor-bearing mice [4]; regrowth phase, 2 × 10 MBq, 0.2 nmol): 3.8 ± 1.1 days
5 | C[C@@H](O)[C@@H]1NC(=O)[C@H](CCCCN)NC(=O)[C@@H](Cc2c[nH]c3ccccc23)NC(=O)[C@H](Cc2ccc(O)cc2)NC(=O)[C@@H](NC(=O)[C@@H](Cc2ccccc2)NC(=O)CN2CCN(CC(=O)O)CCN(CC(=O)O)CCN(CC(=O)O)CC2)CSSC[C@@H](C(=O)N[C@H](CO)[C@@H](C)O)NC1=O [DOTATOC, DOTA-[Tyr^3]-octreotide] |  |  |  |  |  |  |  |  |  |  |  |  |  |  |  |  |  |  |  |  | tissue uptake at 2 h (in vivo; AR42J tumor, 0.04 nmol/mouse): ~17 %ID/g; tissue uptake at 2 h (in vivo; AR42J tumor, 0.2 nmol/mouse): ~15 %ID/g; tissue uptake at 2 h (in vivo; liver): ~0.2 %ID/g; AR42J tumor uptake (AR42J tumor-bearing mice [3]; listed as [^161Tb]Tb-/[^177Lu]Lu-DOTATOC): ~ 8 % IA/g
